According to US10344060B2 (priority 2013, dated 2019):
Read-outs that look alike come from different tables or passages of the source.

What was measured:
[1] = biological target: hNav1.7 (Homo sapiens, UniProt Q15858); test: cell-based; assay type: cell-based; conditions: PatchXpress, read-out: PX hNav1.7 Tonic IC50
[2] = biological target: hNav1.4 (Homo sapiens, UniProt P35499); test: cell-based; assay type: cell-based; conditions: for IC50: PatchXpress, read-out: PX hNav1.4 Tonic IC50; for Nav1.4/Nav1.7: ratio of PX tonic IC50 values
hNav1.4, sequence (P35499 whole entry): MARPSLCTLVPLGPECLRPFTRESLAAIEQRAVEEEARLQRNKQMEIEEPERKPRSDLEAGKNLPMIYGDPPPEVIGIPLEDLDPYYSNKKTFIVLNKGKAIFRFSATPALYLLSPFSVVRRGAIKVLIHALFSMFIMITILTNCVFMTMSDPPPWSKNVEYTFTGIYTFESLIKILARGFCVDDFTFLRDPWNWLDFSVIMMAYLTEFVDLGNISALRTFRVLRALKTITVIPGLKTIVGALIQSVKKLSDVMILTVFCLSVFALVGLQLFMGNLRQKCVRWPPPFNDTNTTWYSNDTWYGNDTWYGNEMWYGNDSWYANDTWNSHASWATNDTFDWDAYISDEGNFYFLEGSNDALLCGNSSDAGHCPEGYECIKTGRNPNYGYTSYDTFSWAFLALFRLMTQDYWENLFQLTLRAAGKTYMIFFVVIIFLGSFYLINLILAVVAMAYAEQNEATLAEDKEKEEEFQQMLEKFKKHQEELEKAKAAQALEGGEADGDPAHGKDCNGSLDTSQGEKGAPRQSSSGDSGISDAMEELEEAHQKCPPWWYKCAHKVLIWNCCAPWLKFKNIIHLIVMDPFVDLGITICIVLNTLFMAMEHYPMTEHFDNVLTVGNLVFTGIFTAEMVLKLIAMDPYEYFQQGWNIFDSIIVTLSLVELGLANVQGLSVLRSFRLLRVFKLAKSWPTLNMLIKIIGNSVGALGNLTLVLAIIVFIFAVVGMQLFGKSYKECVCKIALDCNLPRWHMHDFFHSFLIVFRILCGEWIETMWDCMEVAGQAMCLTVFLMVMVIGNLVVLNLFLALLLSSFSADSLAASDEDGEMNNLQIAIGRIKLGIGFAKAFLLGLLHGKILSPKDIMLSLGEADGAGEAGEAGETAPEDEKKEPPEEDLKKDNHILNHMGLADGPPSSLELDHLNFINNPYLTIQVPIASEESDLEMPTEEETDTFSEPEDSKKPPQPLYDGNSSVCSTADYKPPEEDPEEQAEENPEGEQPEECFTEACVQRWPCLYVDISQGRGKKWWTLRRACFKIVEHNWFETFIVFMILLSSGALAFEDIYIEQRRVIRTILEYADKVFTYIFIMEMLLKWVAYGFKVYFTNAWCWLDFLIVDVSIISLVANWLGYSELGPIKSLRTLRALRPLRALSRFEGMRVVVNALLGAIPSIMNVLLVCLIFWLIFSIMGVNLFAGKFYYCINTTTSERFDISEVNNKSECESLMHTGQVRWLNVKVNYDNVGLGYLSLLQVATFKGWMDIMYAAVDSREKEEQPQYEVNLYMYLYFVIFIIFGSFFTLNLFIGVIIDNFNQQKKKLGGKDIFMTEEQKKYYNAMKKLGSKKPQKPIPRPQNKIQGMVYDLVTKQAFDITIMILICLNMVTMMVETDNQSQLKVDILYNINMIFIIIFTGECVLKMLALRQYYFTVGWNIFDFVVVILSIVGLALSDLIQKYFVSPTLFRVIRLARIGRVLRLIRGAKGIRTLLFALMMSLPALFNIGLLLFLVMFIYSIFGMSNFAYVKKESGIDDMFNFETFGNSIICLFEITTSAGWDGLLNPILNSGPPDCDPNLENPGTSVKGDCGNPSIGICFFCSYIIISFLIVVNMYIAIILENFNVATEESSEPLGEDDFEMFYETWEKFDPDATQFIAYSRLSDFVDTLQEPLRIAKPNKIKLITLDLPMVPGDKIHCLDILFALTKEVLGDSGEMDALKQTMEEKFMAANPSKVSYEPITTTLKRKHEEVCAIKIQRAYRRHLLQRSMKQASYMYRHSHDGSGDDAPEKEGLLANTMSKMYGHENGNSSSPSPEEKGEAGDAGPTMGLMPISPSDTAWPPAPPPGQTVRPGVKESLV

hNav1.7, sequence (Q15858 whole entry): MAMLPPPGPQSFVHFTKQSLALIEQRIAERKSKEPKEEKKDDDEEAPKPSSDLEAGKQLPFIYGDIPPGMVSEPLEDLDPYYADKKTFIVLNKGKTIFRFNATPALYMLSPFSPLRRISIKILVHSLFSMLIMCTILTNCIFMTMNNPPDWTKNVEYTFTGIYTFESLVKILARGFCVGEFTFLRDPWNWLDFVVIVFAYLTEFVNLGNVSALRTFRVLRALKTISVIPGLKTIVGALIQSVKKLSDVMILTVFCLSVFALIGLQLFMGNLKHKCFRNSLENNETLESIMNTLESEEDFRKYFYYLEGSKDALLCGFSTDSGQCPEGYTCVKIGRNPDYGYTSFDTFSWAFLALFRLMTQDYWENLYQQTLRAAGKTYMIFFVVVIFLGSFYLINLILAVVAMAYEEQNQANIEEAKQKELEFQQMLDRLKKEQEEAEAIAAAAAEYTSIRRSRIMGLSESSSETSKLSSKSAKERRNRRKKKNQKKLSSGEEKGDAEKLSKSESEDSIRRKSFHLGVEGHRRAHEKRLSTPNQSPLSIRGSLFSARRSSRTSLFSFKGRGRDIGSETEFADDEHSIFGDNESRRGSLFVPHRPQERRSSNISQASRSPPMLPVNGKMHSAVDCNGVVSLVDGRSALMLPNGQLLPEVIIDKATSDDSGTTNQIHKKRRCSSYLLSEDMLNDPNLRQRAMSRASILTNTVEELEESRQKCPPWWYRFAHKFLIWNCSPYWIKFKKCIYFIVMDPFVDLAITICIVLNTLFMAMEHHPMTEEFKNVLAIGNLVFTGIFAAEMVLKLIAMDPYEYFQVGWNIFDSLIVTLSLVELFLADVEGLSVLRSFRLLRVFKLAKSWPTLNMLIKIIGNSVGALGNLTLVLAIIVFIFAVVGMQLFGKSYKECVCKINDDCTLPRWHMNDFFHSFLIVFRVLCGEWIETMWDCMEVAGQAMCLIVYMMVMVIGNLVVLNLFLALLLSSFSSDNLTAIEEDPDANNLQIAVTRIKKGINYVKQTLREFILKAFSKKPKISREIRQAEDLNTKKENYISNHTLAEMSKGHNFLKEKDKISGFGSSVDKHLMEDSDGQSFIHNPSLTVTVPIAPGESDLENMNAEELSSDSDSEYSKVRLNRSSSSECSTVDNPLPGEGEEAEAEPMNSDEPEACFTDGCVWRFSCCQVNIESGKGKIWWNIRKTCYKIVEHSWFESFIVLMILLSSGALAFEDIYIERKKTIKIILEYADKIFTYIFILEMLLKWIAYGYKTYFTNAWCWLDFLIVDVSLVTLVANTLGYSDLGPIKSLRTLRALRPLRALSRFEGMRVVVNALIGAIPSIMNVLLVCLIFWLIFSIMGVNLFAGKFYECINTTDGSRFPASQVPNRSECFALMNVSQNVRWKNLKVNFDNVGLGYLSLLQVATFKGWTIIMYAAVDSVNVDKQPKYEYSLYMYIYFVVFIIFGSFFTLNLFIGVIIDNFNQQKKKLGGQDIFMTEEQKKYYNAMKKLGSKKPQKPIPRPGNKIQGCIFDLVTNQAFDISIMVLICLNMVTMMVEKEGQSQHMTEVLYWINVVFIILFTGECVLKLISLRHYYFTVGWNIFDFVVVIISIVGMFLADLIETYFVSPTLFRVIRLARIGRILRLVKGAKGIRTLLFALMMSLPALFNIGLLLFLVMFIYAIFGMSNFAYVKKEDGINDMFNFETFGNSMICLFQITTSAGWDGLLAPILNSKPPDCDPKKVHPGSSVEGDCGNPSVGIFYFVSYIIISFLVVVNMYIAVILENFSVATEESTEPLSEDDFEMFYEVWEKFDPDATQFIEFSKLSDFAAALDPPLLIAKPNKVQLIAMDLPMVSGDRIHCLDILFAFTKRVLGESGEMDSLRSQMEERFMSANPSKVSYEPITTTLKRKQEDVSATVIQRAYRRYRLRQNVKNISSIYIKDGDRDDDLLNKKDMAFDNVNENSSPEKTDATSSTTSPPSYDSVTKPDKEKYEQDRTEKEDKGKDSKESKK

Work on `CC[C@H](C)[C@H](NC(=O)[C@@H](NC(=O)[C@H](CCCCN)NC(=O)[C@H](CCCNC(=N)N)NC(=O)[C@@H]1CSSC[C@@H]2NC(=O)[C@H](C)NC(=O)[C@H](CCCNC(=N)N)NC(=O)[C@H](CCCCN)NC(=O)[C@H](CO)NC(=O)[C@H](CC(=O)O)NC(=O)[C@@H]3CSSC[C@H](NC(=O)[C@H](CCCNC(=N)N)NC(=O)[C@H](CC(C)C)NC(=O)CNC(=O)[C@H](CCC(=O)O)NC(=O)[C@H](CSSC[C@H](NC(=O)[C@@H](N)Cc4ccc(O)cc4)C(=O)N[C@@H](CCC(N)=O)C(=O)N[C@@H](CCCCN)C(=O)N[C@@H](CCC(=O)O)C(=O)N[C@@H](CCSC)C(=O)N[C@@H](Cc4c[nH]c5ccccc45)C(=O)N[C@@H]([C@@H](C)O)C(=O)N3)NC2=O)C(=O)N[C@@H](CCCCN)C(=O)N[C@@H](CC(C)C)C(=O)N[C@@H](Cc2c[nH]c3ccccc23)C(=O)N1)[C@@H](C)CC)C(N)=O` [compound 52] yielded an IC50 ([1]; tonic, Table 11) of over 1000 nM and an IC50 ([2]; tonic, Table 11) of 3.1 nM.
In the case of `C#CC[C@H](N)C(=O)N[C@@H](Cc1ccc(O)cc1)C(=O)N[C@H]1CSSC[C@@H]2NC(=O)[C@@H]3CSSC[C@@H](C(=O)N[C@@H](CCCNC(=N)N)C(=O)N[C@@H](CCCCN)C(=O)N[C@@H](CCC(=O)O)C(=O)N[C@@H](Cc4ccccc4)C(N)=O)NC(=O)[C@H](Cc4c[nH]c5ccccc45)NC(=O)[C@H](CC(C)C)NC(=O)[C@H](CCCCN)NC(=O)[C@H](CSSC[C@H](NC(=O)[C@H]([C@@H](C)O)NC(=O)[C@H](Cc4c[nH]c5ccccc45)NC(=O)[C@H](CCCC)NC(=O)[C@H](Cc4c[nH]c5ccccc45)NC(=O)[C@H](CCCCN)NC(=O)[C@H](CCC(N)=O)NC1=O)C(=O)N[C@@H](CC(=O)O)C(=O)N[C@@H](CO)C(=O)N[C@@H](CCCCN)C(=O)N[C@@H](CCCNC(=N)N)C(=O)N[C@@H](C)C(=O)N3)NC(=O)[C@H](CCCNC(=N)N)NC(=O)[C@H](CC(C)C)NC(=O)CNC(=O)[C@H](CCC(=O)O)NC2=O` [compound 861], the IC50 ([1]; Table 12, tonic block) is reported as 0.388 nM, the IC50 ([2]; Table 12, tonic block) is reported as 304 nM and the Nav1.4/Nav1.7 ([2]; Table 12) is reported as 785.
With `C#CC[C@@H]1NC(=O)[C@H](CO)NC(=O)[C@H](CC(=O)O)NC(=O)[C@@H]2CSSC[C@@H]3NC(=O)[C@H](CCCNC(=N)N)NC(=O)[C@H](CC(C)C)NC(=O)CNC(=O)[C@H](CCC(=O)O)NC(=O)[C@H](CSSC[C@H](NC(=O)[C@H](Cc4ccc(O)cc4)NC(=O)[C@@H](N)CC#N)C(=O)N[C@@H](CCC(N)=O)C(=O)N[C@@H](CCCCN)C(=O)N[C@@H](Cc4c[nH]c5ccccc45)C(=O)N[C@@H](CCCC)C(=O)N[C@@H](Cc4c[nH]c5ccccc45)C(=O)N[C@@H]([C@@H](C)O)C(=O)N2)NC(=O)[C@H](CSSC[C@@H](C(=O)N[C@@H](CCCNC(=N)N)C(=O)N[C@@H](CCCCN)C(=O)N[C@@H](CCC(=O)O)C(=O)N[C@H](C(N)=O)[C@@H](C)CC)NC(=O)[C@H](Cc2c[nH]c4ccccc24)NC(=O)[C@H](CC(C)C)NC(=O)[C@H](CCCCN)NC3=O)NC(=O)[C@H](C)NC(=O)[C@H](CCCNC(=N)N)NC1=O` [compound 521] the IC50 ([1]; Table 12, tonic block) was 1.48 nM, the IC50 ([2]; Table 12, tonic block) was 92.1 nM and the Nav1.4/Nav1.7 ([2]; Table 12) was 62.
`C#CC[C@H](N)C(=O)NCCCC[C@@H]1NC(=O)[C@H](CCCNC(=N)N)NC(=O)[C@H](CCCCN)NC(=O)[C@H](CO)NC(=O)[C@H](CC(=O)O)NC(=O)[C@@H]2CSSC[C@@H]3NC(=O)[C@H](CCCNC(=N)N)NC(=O)[C@H](CC(C)C)NC(=O)CNC(=O)[C@H](CCC(=O)O)NC(=O)[C@H](CSSC[C@H](NC(=O)[C@H](Cc4ccc(O)cc4)NC(=O)[C@@H](N)CCC)C(=O)N[C@@H](CCC(N)=O)C(=O)N[C@@H](CCCCN)C(=O)N[C@@H](Cc4c[nH]c5ccccc45)C(=O)N[C@@H](CCCC)C(=O)N[C@@H](Cc4c[nH]c5ccccc45)C(=O)N[C@@H]([C@@H](C)O)C(=O)N2)NC(=O)[C@H](CSSC[C@@H](C(=O)N[C@@H](CCCNC(=N)N)C(=O)N[C@@H](CCCCN)C(=O)N[C@H](C(=O)N[C@H](C(N)=O)[C@@H](C)CC)[C@@H](C)CC)NC(=O)[C@H](Cc2c[nH]c4ccccc24)NC(=O)[C@H](CC(C)C)NC(=O)[C@H](CCCCN)NC3=O)NC1=O` [compound 431] gave an IC50 ([1]; Table 12, tonic block) of 1.63 nM and a Nav1.4/Nav1.7 ([2]; Table 12) of 13.
Work on `C#CC[C@@H]1NC(=O)[C@@H]2CSSC[C@H](NC(=O)[C@H](Cc3ccc(O)cc3)NC(=O)[C@@H](N)CC#N)C(=O)N[C@@H](CCC(N)=O)C(=O)N[C@@H](CCCCN)C(=O)N[C@@H](Cc3c[nH]c4ccccc34)C(=O)N[C@@H](CCCC)C(=O)N[C@@H](Cc3c[nH]c4ccccc34)C(=O)N[C@@H]([C@@H](C)O)C(=O)N[C@H]3CSSC[C@H](NC(=O)[C@H](CCCNC(=N)N)NC(=O)[C@H](CC(C)C)NC(=O)CNC1=O)C(=O)N[C@@H](CCCCN)C(=O)N[C@@H](CC(C)C)C(=O)N[C@@H](Cc1c[nH]c4ccccc14)C(=O)N[C@H](C(=O)N[C@@H](CCCNC(=N)N)C(=O)N[C@@H](CCCCN)C(=O)N[C@@H](CCC(=O)O)C(=O)N[C@@H](Cc1ccccc1)C(N)=O)CSSC[C@H](NC(=O)[C@H](C)NC(=O)[C@H](CCCNC(=N)N)NC(=O)[C@H](CCCCN)NC(=O)[C@H](CO)NC(=O)[C@H](CC(=O)O)NC3=O)C(=O)N2` [compound 876] yielded an IC50 ([1]; Table 12, tonic block) of 1.09 nM, an IC50 ([2]; Table 12, tonic block) of 72.1 nM and a Nav1.4/Nav1.7 ([2]; Table 12) of 66.
For `C#CC[C@H](N)C(=O)N[C@@H](Cc1ccc(O)cc1)C(=O)N[C@H]1CSSC[C@@H]2NC(=O)[C@@H]3CSSC[C@@H](C(=O)N[C@@H](CCCNC(=N)N)C(=O)N[C@@H](CCCCN)C(=O)N[C@@H](CCC(=O)O)C(=O)N[C@H](C(N)=O)[C@@H](C)CC)NC(=O)[C@H](Cc4c[nH]c5ccccc45)NC(=O)[C@H]([C@@H](C)CC)NC(=O)[C@H](CCCCN)NC(=O)[C@H](CSSC[C@H](NC(=O)[C@H]([C@@H](C)O)NC(=O)[C@H](Cc4c[nH]c5ccccc45)NC(=O)[C@H](CCCC)NC(=O)[C@H](Cc4c[nH]c5ccccc45)NC(=O)[C@H](CCCCN)NC(=O)[C@H](CCC(N)=O)NC1=O)C(=O)N[C@@H](CC(=O)O)C(=O)N[C@@H](CO)C(=O)N[C@@H](CCCCN)C(=O)N[C@@H](CCCNC(=N)N)C(=O)N[C@@H](C)C(=O)N3)NC(=O)[C@H](CCCNC(=N)N)NC(=O)[C@H](CC(C)C)NC(=O)CNC(=O)[C@H](CCC(=O)O)NC2=O` [compound 855], the IC50 ([1]; Table 12, tonic block) was 1.06 nM, the IC50 ([2]; Table 12, tonic block) was 193 nM and the Nav1.4/Nav1.7 ([2]; Table 12) was 182.
For `C#CC[C@H](N)C(=O)N[C@@H](Cc1ccc(O)cc1)C(=O)N[C@H]1CSSC[C@@H]2NC(=O)[C@@H]3CSSC[C@@H](C(=O)N[C@@H](CCCNC(=N)N)C(=O)N[C@@H](CCCCN)C(=O)N[C@@H](CCC(=O)O)C(=O)N[C@H](C(=O)NCC(=O)O)[C@@H](C)CC)NC(=O)[C@H](Cc4c[nH]c5ccccc45)NC(=O)[C@H](CC(C)C)NC(=O)[C@H](CCCCN)NC(=O)[C@H](CSSC[C@H](NC(=O)[C@H]([C@@H](C)O)NC(=O)[C@H](Cc4c[nH]c5ccccc45)NC(=O)[C@H](CCCC)NC(=O)[C@H](Cc4c[nH]c5ccccc45)NC(=O)[C@H](CCCCN)NC(=O)[C@H](CCC(N)=O)NC1=O)C(=O)N[C@@H](CC(=O)O)C(=O)N[C@@H](CO)C(=O)N[C@@H](CCCCN)C(=O)N[C@@H](CCCNC(=N)N)C(=O)N[C@@H](C)C(=O)N3)NC(=O)[C@H](CCCNC(=N)N)NC(=O)[C@H](CC(C)C)NC(=O)CNC(=O)[C@H](CCC(=O)O)NC2=O` [compound 828], the IC50 ([1]; Table 12, tonic block) was 8.34 nM, the IC50 ([2]; Table 12, tonic block) was 1760 nM and the Nav1.4/Nav1.7 ([2]; Table 12) was 211.
